We go through 14 molecules from patent publication US8247377B2, “Non-steroidal glucocorticoid inhibitors and their use in treating inflammation, allergy and auto-immune conditions” (Glaxo Group Limited, priority 2006, dated 2012).

Some results are limits rather than exact numbers.

What all share (type): cell-based
Test [1] deals with T1, progesterone receptor (Homo sapiens, UniProt P06401).
T1 construct: expressed in transfected cells; host or cells: CV-1 cells transduced with PRb-BacMam and MMTV-BacMam
T1 sequence (P06401 1-933): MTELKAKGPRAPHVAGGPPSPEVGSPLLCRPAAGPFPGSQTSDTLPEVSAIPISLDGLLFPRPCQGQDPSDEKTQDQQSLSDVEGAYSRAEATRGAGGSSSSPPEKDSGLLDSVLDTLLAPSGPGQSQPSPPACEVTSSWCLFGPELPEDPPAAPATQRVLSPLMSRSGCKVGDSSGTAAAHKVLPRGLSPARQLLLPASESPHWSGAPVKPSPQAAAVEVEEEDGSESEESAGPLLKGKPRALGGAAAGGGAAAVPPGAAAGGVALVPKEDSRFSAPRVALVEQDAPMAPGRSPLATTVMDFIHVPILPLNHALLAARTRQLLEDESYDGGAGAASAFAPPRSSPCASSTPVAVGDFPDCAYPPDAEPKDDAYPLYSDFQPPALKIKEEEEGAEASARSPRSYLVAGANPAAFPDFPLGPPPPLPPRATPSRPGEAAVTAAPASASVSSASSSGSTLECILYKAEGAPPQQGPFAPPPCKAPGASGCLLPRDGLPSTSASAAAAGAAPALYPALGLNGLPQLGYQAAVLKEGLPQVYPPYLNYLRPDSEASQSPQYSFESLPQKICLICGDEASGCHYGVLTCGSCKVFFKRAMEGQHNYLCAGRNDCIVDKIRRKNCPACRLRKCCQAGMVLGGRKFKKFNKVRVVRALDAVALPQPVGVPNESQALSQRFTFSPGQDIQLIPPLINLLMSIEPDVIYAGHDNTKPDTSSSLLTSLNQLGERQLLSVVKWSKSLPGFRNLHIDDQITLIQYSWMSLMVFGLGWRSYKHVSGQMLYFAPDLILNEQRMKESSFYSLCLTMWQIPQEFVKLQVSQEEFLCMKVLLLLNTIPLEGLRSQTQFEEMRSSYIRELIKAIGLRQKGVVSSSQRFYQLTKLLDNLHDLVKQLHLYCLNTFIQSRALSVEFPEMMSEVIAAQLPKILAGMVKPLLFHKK
Description: Assay for progesterone receptor activity (CV-1 cells, PRb-BacMam/MMTV-BacMam). The conditions noted are these: CV-1 cells transduced with PRb-BacMam and MMTV-BacMam; read-out: pEC50 progesterone receptor activity (converted). The procedure, abridged: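 CV-1 cells co-transduced with PRb-BacMam and MMTV-BacMam (10% each), seeded onto compounds in DMEM with 10% serum. After 24 h, luminescence was read with Steadylite. pEC50 values were estimated from dose-response curves.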

Test [2] relates to MMTV promoter. Description: MMTV agonist assay in A549 MMTV cells. As to conditions: Homo sapiens, A549, 6 h, >85% = full agonist, >20% and <85% = partial or efficacy selective agonist, read-out: average maximum asymptote in the MMTV agonist assay. Put shortly: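 A549 cells stably carrying an MMTV promoter-driven renilla luciferase reporter were exposed to compound for 6 h at 37 °C in DMEM with 10% FCS and 25 mM HEPES. Luminescence read after renilla substrate addition; pEC50 and maximum asymptote estimated from dose-response curves.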

Test [3] relates to NFκB. Nature of the test: NFκB agonist assay in A549 SPAP cells.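 On average maximum asymptote in the NFkB assay: maximum inhibition of the TNFα-induced NFκB-driven signal.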 As to conditions: Homo sapiens; for Emax: A549, A549 SPAP cells, >85% = full agonist, ≧20% = partial or full agonist, read-out: average maximum asymptote in the NFkB assay; for IC50: A549 SPAP cells, TNFα 3.2 ng/ml, read-out: pIC50 for the NFkB assay (converted). The procedure, abridged:
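A549 cells stably carrying an ELAM/NFκB-driven SPAP reporter were pre-incubated 1 h at 37° C with compound, then stimulated with TNFα (3.2 ng/ml final) for 15 h. SPAP activity read colorimetrically with pNPP at 405 nm after ~1 h; pIC50 estimated from dose-response curves.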

Consider `Nc1c(C(=O)NCC(O)(CN(CCF)C(=O)c2c(Cl)cccc2Cl)C(F)(F)F)cnn1-c1ccc(F)cc1` (racemic) [Example 28 (racemic), 5-amino-N-(2-{[[(2,6-dichlorophenyl)carbonyl](2-fluoroethyl)amino]methyl}-3,3,3-trifluoro-2-hydroxypropyl)-1-(4-fluorophenyl)-1H-pyrazole-4-carboxamide], for which the EC50 in test [1] was over 1000 nM. Further, the Emax in test [2] is over 85%. Also, in test [3], the Emax was over 85% and the IC50 was under 1000 nM.
`Nc1c(C(=O)NCC(O)(CN(CCF)C(=O)c2c(Cl)cccc2Br)C(F)(F)F)cnn1-c1ccc(F)cc1` (racemic) [Example 30 (racemic), 5-amino-N-(2-{[[(2-bromo-6-chlorophenyl)carbonyl](2-fluoroethyl)amino]methyl}-3,3,3-trifluoro-2-hydroxypropyl)-1-(4-fluorophenyl)-1H-pyrazole-4-carboxamide]: in test [1], the EC50 was over 1000 nM. The Emax in test [2] was over 85%. Also, in test [3], the Emax was over 85% and the IC50 is under 1000 nM.
Turning to `Nc1c(C(=O)NCC(O)(CN(CCF)C(=O)c2c(Cl)cccc2OC(F)F)C(F)(F)F)cnn1-c1ccc(F)cc1` (racemic) [Example 31 (racemic), 5-amino-N-(2-{[({2-chloro-6-[(difluoromethyl)oxy]phenyl}carbonyl)(2-fluoroethyl)amino]methyl}-3,3,3-trifluoro-2-hydroxypropyl)-1-(4-fluorophenyl)-1H-pyrazole-4-carboxamide], the EC50 in test [1] was over 1000 nM. Further, the Emax in test [2] was over 85%. In test [3], the Emax is over 85% and the IC50 is under 1000 nM.
Turning to `CCN(CC(O)(CNC(=O)c1cnn(-c2ccc(F)c(F)c2)c1N)C(F)(F)F)C(=O)c1c(F)cccc1F` (racemic) [Example 33 (racemic), 5-amino-1-(3,4-difluorophenyl)-N-(2-{[[(2,6-difluorophenyl)carbonyl](ethyl)amino]methyl}-3,3,3-trifluoro-2-hydroxypropyl)-1H-pyrazole-4-carboxamide], the EC50 in test [1] is over 1000 nM. Moreover, in test [2], the Emax is over 85%. Further, in test [3], the Emax is over 85% and the IC50 was under 1000 nM.
For `CCN(CC(O)(CNC(=O)c1cnn(-c2ccc(F)cc2F)c1N)C(F)(F)F)C(=O)c1c(F)cccc1F` (racemic) [Example 34 (racemic), 5-amino-1-(2,4-difluorophenyl)-N-(2-{[[(2,6-difluorophenyl)carbonyl](ethyl)amino]methyl}-3,3,3-trifluoro-2-hydroxypropyl)-1H-pyrazole-4-carboxamide], the EC50 in test [1] was over 1000 nM. In addition, the Emax in test [2] and in test [3] was over 85% each time. In addition, the IC50 in test [3] was under 1000 nM.
On to `CCN(CC(O)(CNC(=O)c1cnn(-c2cc(F)cc(F)c2)c1N)C(F)(F)F)C(=O)c1c(F)cccc1F` (racemic) [Example 35 (racemic), 5-amino-1-(3,5-difluorophenyl)-N-(2-{[[(2,6-difluorophenyl)carbonyl](ethyl)amino]methyl}-3,3,3-trifluoro-2-hydroxypropyl)-1H-pyrazole-4-carboxamide], for which the EC50 in test [1] was over 1000 nM. For the same molecule, in test [2], the Emax was over 85%. Further, in test [3], the Emax is over 85% and the IC50 was under 1000 nM.
As for `CCN(CC(O)(CNC(=O)c1cnn(-c2cc(F)ccc2F)c1N)C(F)(F)F)C(=O)c1c(F)cccc1F` (racemic) [Example 36 (racemic), 5-amino-1-(2,5-difluorophenyl)-N-(2-{[[(2,6-difluorophenyl)carbonyl](ethyl)amino]methyl}-3,3,3-trifluoro-2-hydroxypropyl)-1H-pyrazole-4-carboxamide], the EC50 in test [1] was over 1000 nM. Moreover, the Emax in test [2] was over 85%. In addition, in test [3], the Emax is over 85% and the IC50 is under 1000 nM.
On to `CCN(CC(O)(CNC(=O)c1cnn(-c2c(F)cccc2F)c1N)C(F)(F)F)C(=O)c1c(F)cccc1F` (racemic) [Example 37 (racemic), 5-amino-1-(2,6-difluorophenyl)-N-(2-{[[(2,6-difluorophenyl)carbonyl](ethyl)amino]methyl}-3,3,3-trifluoro-2-hydroxypropyl)-1H-pyrazole-4-carboxamide], for which the EC50 in test [1] was over 1000 nM. In addition, in test [2], the Emax is over 85%. Also, in test [3], the Emax is over 85% and the IC50 is under 1000 nM.
For the molecule `CCN(CC(O)(CNC(=O)c1cnn(-c2cccc(F)c2)c1N)C(F)(F)F)C(=O)c1c(F)cccc1F` (racemic) [Example 38 (racemic), 5-amino-N-(2-{[[(2,6-difluorophenyl)carbonyl](ethyl)amino]methyl}-3,3,3-trifluoro-2-hydroxypropyl)-1-(3-fluorophenyl)-1H-pyrazole-4-carboxamide], the EC50 in test [1] is over 1000 nM. Besides, in test [2], the Emax was over 85%. Besides, in test [3], the Emax is over 85% and the IC50 was under 1000 nM.
Turning to `CCN(CC(O)(CNC(=O)c1cnn(-c2ccc(Cl)cc2)c1N)C(F)(F)F)C(=O)c1c(F)cccc1F` (racemic) [Example 39 (racemic), 5-amino-1-(4-chlorophenyl)-N-(2-{[[(2,6-difluorophenyl)carbonyl](ethyl)amino]methyl}-3,3,3-trifluoro-2-hydroxypropyl)-1H-pyrazole-4-carboxamide], the EC50 in test [1] is over 1000 nM. Moreover, in test [2], the Emax is over 85%. Also, in test [3], the Emax is over 85% and the IC50 was under 1000 nM.
As for `CCN(CC(O)(CNC(=O)c1cnn(-c2cccc(Cl)c2)c1N)C(F)(F)F)C(=O)c1c(F)cccc1F` (racemic) [Example 41 (racemic), 5-amino-1-(3-chlorophenyl)-N-(2-{[[(2,6-difluorophenyl)carbonyl](ethyl)amino]methyl}-3,3,3-trifluoro-2-hydroxypropyl)-1H-pyrazole-4-carboxamide], the EC50 in test [1] was over 1000 nM. In test [2], the Emax is over 85%. Also, in test [3], the Emax was over 85% and the IC50 is under 1000 nM.
As to `CCN(CC(O)(CNC(=O)c1cnn(-c2ccccc2F)c1N)C(F)(F)F)C(=O)c1c(F)cccc1F` (racemic) [Example 42 (racemic), 5-amino-N-(2-{[[(2,6-difluorophenyl)carbonyl](ethyl)amino]methyl}-3,3,3-trifluoro-2-hydroxypropyl)-1-(2-fluorophenyl)-1H-pyrazole-4-carboxamide], the EC50 in test [1] is over 1000 nM. Further, in test [2], the Emax was over 85%. Besides, in test [3], the Emax was over 85% and the IC50 is under 1000 nM.
On to `Nc1c(C(=O)NCC(O)(CNC(=O)c2c(C(F)F)cccc2C(F)F)C(F)(F)F)cnn1-c1ccc(F)cc1` (racemic) [Example 43 (racemic), 5-Amino-N-{2-[({[2,6-bis(difluoromethyl)phenyl]carbonyl}amino)methyl]-3,3,3-trifluoro-2-hydroxypropyl}-1-(4-fluorophenyl)-1H-pyrazole-4-carboxamide], for which the EC50 in test [1] was over 1000 nM. Also, the Emax in test [2] is 20 to 85%; in test [3] it was at least 20%. In test [3], the IC50 is under 1000 nM.
For `Nc1c(C(=O)NCC(O)(CNC(=O)c2c(Br)cccc2C(F)(F)F)C(F)(F)F)cnn1-c1ccc(F)cc1` (racemic) [Example 45 (racemic), 5-Amino-N-{2-[({[2-bromo-6-(trifluoromethyl)phenyl]carbonyl}amino)methyl]-3,3,3-trifluoro-2-hydroxypropyl}-1-(4-fluorophenyl)-1H-pyrazole-4-carboxamide], in that order: over 1000 nM, 20 to 85%, at least 20% and under 1000 nM.
